Test results as given in US8269043B2, “Bicyclic aryl sphingosine 1-phosphate analogs” (Biogen Idec MA Inc., priority 2008, dated 2012).

System: circulating lymphocytes
Assay: Lymphopenia assay: circulating lymphocytes after oral gavage
Assay type: in vivo
Settings: Mus musculus, Lymphocyte, po, C57bl/6 male mice, oral gavage 0.5 and 5 mg/kg in 30% HPCD, blood 5 and 24 hours after administration
Protocol: Measurement of circulating lymphocytes: Compounds were dissolved in 30% HPCD. Mice (C57bl/6 male, 6-10 week-old) were administered 0.5 and 5 mg/kg of a compound via oral gavage. 30% HPCD was included as a negative control.
Blood was collected from the retro-orbital sinus 5 and 24 hours after drug administration under short isoflurane anesthesia. Whole blood samples were subjected to hematology analysis. Peripheral lymphocyte counts were determined using an automated analyzer (HEMAVET™ 3700). Three mice were used to assess the lymphocyte depletion activity of each compound screened.
Compounds of formula (I) induced full lymphopenia at times as short as 3 hours or less to as long as 48 hours or more; for example, 4 to 36 hours, or 5 to 24 hours. In some cases, a compound of formula induced full lymphopenia at 5 hours and partial lymphopenia at 24 hours. The dosage required to induce lymphopenia can be in the range of, e.g., 0.001 mg/kg to 100 mg/kg; or 0.01 mg/kg to 10 mg/kg. The dosage can be 10 mg/kg or less, such as 5 mg/kg or less, 1 mg/kg or less, or 0.1 mg/kg or less

Going from `NC(CO)(CO)c1ccc2cc(Oc3cccc(C(F)(F)F)c3)ccc2c1` [Example 191, 2-Amino-2-(6-(3-(trifluoromethyl)phenoxy)naphthalen-2-yl)propane-1,3-diol] to `NC(CO)(CO)c1ccc2cc(Oc3cccc(OCC4CCCCC4)c3)ccc2c1` [Example 199, 2-Amino-2-(6-(3-(cyclohexylmethoxy)phenoxy)naphthalen-2-yl)propane-1,3-diol], the ED50 falls from greater than 5 mg/kg to less than 0.5 mg/kg.

`CC(F)(F)[C@H]1CC[C@H](Oc2ccc3cc([C@@](C)(N)CO)ccc3c2C(F)(F)F)CC1` [Example 334, (R)-2-amino-2-(6-(trans-4-(1,1-difluoroethyl)cyclohexyloxy)-5-(trifluoromethyl)naphthalen-2-yl)propan-1-ol] and `C[C@](N)(CO)c1ccc2c(C(F)(F)F)c(O[C@H]3CC[C@H](C(F)(F)F)CC3)ccc2c1` [Example 266, (R)-2-Amino-2-[5-trifluoromethyl-6-(trans-4-trifluoromethylcyclohexyloxy)-naphthalen-2-yl]propan-1-ol] cannot be ordered by ED50: less than 0.5 mg/kg for the first, less than 0.5 mg/kg for the second.

First: C[C@](N)(CO)c1ccc2cc(O[C@H]3CC[C@@H](C(F)(F)F)CC3)ccc2c1 [Example 259, (R)-2-Amino-2-[6-(cis-4-trifluoromethyl-cyclohexyloxy)-naphthalen-2-yl]-propan-1-ol]
Second: CCCC(F)(F)[C@H]1CC[C@@H](Oc2ccc3cc([C@@](C)(N)CO)ccc3c2)CC1 [Example 331, (R)-2-amino-2-(6-(cis-4-(1,1-difluorobutyl)cyclohexyloxy)naphthalen-2-yl)propan-1-ol]
The ED50 of the first is lower: 0.5 to 5 mg/kg for the first, greater than 5 mg/kg for the second.

Going from `CCCCC1CCC(Oc2ccc3cc([C@@](C)(N)CO)ccc3c2)CC1` (stereo partly drawn) [Example 7, (R)-2-amino-2-(6-(4-butylcyclohexyloxy)naphthalen-2-yl)propan-1-ol] to `CCCC[C@H]1CC[C@@H](Oc2ccc3cc([C@@](C)(N)CO)ccc3c2)CC1` [Example 6, (R)-2-amino-2-(6-(cis-4-butylcyclohexyloxy)naphthalen-2-yl)propan-1-ol], the ED50 rises from less than 0.5 mg/kg to 0.75 mg/kg.

`CCCCCOc1ccc(Oc2ccc3cc(C(N)(CO)CO)ccc3c2)cc1` [Example 251, 2-amino-2-(6-(4-(pentyloxy)phenoxy)naphthalen-2-yl)propane-1,3-diol] and `NC(CO)(CO)c1ccc2cc(Oc3ccc(OCc4ccccc4)cc3)ccc2c1` [Example 248, 2-amino-2-(6-(4-(benzyloxy)phenoxy)naphthalen-2-yl)propane-1,3-diol] cannot be ordered by ED50: less than 0.5 mg/kg for the first, less than 0.5 mg/kg for the second.

`CC(C)(C)[C@H]1CC[C@H](Oc2ccc3cc([C@]4(C)COC(=O)N4)ccc3c2C(F)(F)F)CC1` [Example 131, (R)-4-(6-(trans-4-tert-butylcyclohexyloxy)-5-(trifluoromethyl)naphthalen-2-yl)-4-methyloxazolidin-2-one] and `CC(C)(C)[C@H]1CC[C@H](Oc2ccc3cc(C4(N)COC4)ccc3c2C(F)(F)F)CC1` [Example 153, 3-(6-(trans-4-tert-butylcyclohexyloxy)-5-(trifluoromethyl)naphthalen-2-yl)oxetan-3-amine] cannot be ordered by ED50: less than 0.5 mg/kg for the first, less than 0.5 mg/kg for the second.

`C[C@](N)(CO)c1ccc2c(C(F)(F)F)c(OC3CCC4(CCCCC4)CC3)ccc2c1` [Example 139, (2R)-2-amino-2-(6-(spiro[5.5]undecan-3-yloxy)-5-(trifluoromethyl)naphthalen-2-yl)propan-1-ol] and `Cc1c(O[C@H]2CC[C@H](C(C)(C)C)CC2)ccc2cc([C@@](C)(N)CO)ccc12` [Example 217, (R)-2-amino-2-(6-(trans-4-tert-butylcyclohexyloxy)-5-methylnaphthalen-2-yl)propan-1-ol] cannot be ordered by ED50: less than 0.5 mg/kg for the first, less than 0.5 mg/kg for the second.

Compared with `CC(C)(C)[C@H]1CC[C@H](Oc2ccc3cc([C@@](C)(N)CO)ccc3c2-c2cccc(Cl)c2)CC1` [Example 231, (R)-2-amino-2-(6-(trans-4-tert-butylcyclohexyloxy)-5-(3-chlorophenyl)naphthalen-2-yl)propan-1-ol], `CCc1ccc(Oc2ccc3cc([C@@](C)(N)CO)ccc3c2)cc1` [Example 176, (R)-2-Amino-2-(6-(4-ethylphenoxy)naphthalen-2-yl)propan-1-ol] is lower in ED50: greater than 5 mg/kg for the first, 0.5 to 5 mg/kg for the second.
